Results as given in ChEMBL document CHEMBL5390204, “Persephacin Is a Broad-Spectrum Antifungal Aureobasidin Metabolite That Overcomes Intrinsic Resistance in Aspergillus fumigatus” (J Nat Prod, 2023).
Values after ≈ are worked out from the molar mass of the structure shown. Numbered stars: 1 amine (or outer) side, 2 acyl side, 3 side chain; on linkers, the order of the positions; unused ones are H or OH. Square brackets hold non-standard residues; d marks the D form. Peptide text beside a SMILES is read from it. X1 = CC[C@@H](C)[C@@H](O[*:1])C(=O)[*:2]; NMeVal(β-OH) = CN[C@H](C(=O)O)C(C)(C)O; NMeF = CN[C@@H](Cc1ccccc1)C(=O)O; aIle = CC[C@@H](C)[C@H](N)C(=O)O; NMeV = CN[C@H](C(=O)O)C(C)C

Columns and labels:
Mucor circinelloides [1] = test: Antifungal activity against Mucor circinelloides 235C7 assessed as reduction in fungal growth incubated for 48 hrs by microplate reader analysis; assay type: functional
Rhizopus arrhizus [2] = test: Antifungal activity against Rhizopus oryzae FGSC 9543 assessed as reduction in fungal growth incubated for 48 hrs by microplate reader analysis; assay type: functional
Aspergillus fumigatus [3] = test: Antifungal activity against Aspergillus fumigatus MYA 3627 assessed as reduction in fungal viability incubated for 48 hrs by microplate reader analysis; assay type: functional
Candida parapsilosis [4] = test: Antifungal activity against Candida parapsilosis ATCC 22019 (Y-12969) assessed as reduction in fungal growth incubated for 48 hrs by microplate reader analysis; assay type: functional; conditions: Lodderomyces parapsilosis
Pichia kudriavzevii [5] = test: Antifungal activity against Candida krusei ATCC 6258 (Y-7179) assessed as reduction in fungal growth incubated for 48 hrs by microplate reader analysis; assay type: functional
Aspergillus fumigatus [6] = test: Antifungal activity against Aspergillus fumigatus NRRL5109 assessed as reduction in fungal growth incubated for 48 hrs by microplate reader analysis; assay type: functional
Fusarium solani [7] = test: Antifungal activity against Fusarium solani 243G2 assessed as reduction in fungal growth incubated for 48 hrs by microplate reader analysis; assay type: functional
Paecilomyces lilacinus [8] = test: Antifungal activity against Paecilomyces lilacinus 165E10 assessed as reduction in fungal viability incubated for 48 hrs by microplate reader analysis; assay type: functional, Purpureocillium lilacinum
Candida tropicalis [9] = test: Antifungal activity against Candida tropicalis ATCC750 (Y-12699) assessed as reduction in fungal growth incubated for 48 hrs by microplate reader analysis; assay type: functional
Candida tropicalis [10] = test: Antifungal activity against Candida tropicalis ATCC750 (Y-12699) assessed as reduction in fungal viability incubated for 48 hrs by microplate reader analysis; assay type: functional
Aspergillus fumigatus [11] = test: Antifungal activity against Aspergillus fumigatus MYA 3627 assessed as reduction in fungal growth incubated for 48 hrs by microplate reader analysis; assay type: functional
Candida albicans [12] = test: Antifungal activity against Candida albicans ATCC 10231 assessed as reduction in fungal viability incubated for 48 hrs by microplate reader analysis; assay type: functional
Candida albicans [13] = test: Antifungal activity against Candida albicans SC5314 assessed as reduction in fungal growth incubated for 48 hrs by microplate reader analysis; assay type: functional
Fusarium solani [14] = test: Antifungal activity against Fusarium solani 243G2 assessed as reduction in fungal viability incubated for 48 hrs by microplate reader analysis; assay type: functional
Candida parapsilosis [15] = test: Antifungal activity against Candida parapsilosis ATCC 22019 (Y-12969) assessed as reduction in fungal viability incubated for 48 hrs by microplate reader analysis; assay type: functional
Candida albicans [16] = test: Antifungal activity against Candida albicans SC5314 assessed as reduction in fungal viability incubated for 48 hrs by microplate reader analysis; assay type: functional
Aspergillus fumigatus [17] = test: Antifungal activity against Aspergillus fumigatus NRRL6113 assessed as reduction in fungal growth incubated for 48 hrs by microplate reader analysis; assay type: functional
Pichia kudriavzevii [18] = test: Antifungal activity against Candida krusei ATCC 6258 (Y-7179) assessed as reduction in fungal viability incubated for 48 hrs by microplate reader analysis; assay type: functional
Aspergillus fumigatus [19] = test: Antifungal activity against Aspergillus fumigatus NRRL6113 assessed as reduction in fungal viability incubated for 48 hrs by microplate reader analysis; assay type: functional
Aspergillus flavus [20] = test: Antifungal activity against Aspergillus flavus NRRL485 assessed as reduction in fungal growth incubated for 48 hrs by microplate reader analysis; assay type: functional
Paecilomyces lilacinus [21] = test: Antifungal activity against Paecilomyces lilacinus 165E10 assessed as reduction in fungal growth incubated for 48 hrs by microplate reader analysis; assay type: functional; conditions: Purpureocillium lilacinum
Aspergillus niger [22] = test: Antifungal activity against Aspergillus niger FGSC A732 assessed as reduction in fungal growth incubated for 48 hrs by microplate reader analysis; assay type: functional
Cryptococcus neoformans [23] = test: Antifungal activity against Cryptococcus neoformans H99 assessed as reduction in fungal growth incubated for 48 hrs by microplate reader analysis; assay type: functional
Curvularia lunata [24] = test: Antifungal activity against Curvularia lunata NRRL6409 assessed as reduction in fungal growth incubated for 48 hrs by microplate reader analysis; assay type: functional
Cryptococcus neoformans [25] = test: Antifungal activity against Cryptococcus neoformans H99 assessed as reduction in fungal viability incubated for 48 hrs by microplate reader analysis; assay type: functional
Aspergillus terreus [26] = test: Antifungal activity against Aspergillus terreus 191A6 assessed as reduction in fungal growth incubated for 48 hrs by microplate reader analysis; assay type: functional
Candida albicans [27] = test: Antifungal activity against Candida albicans ATCC 10231 assessed as reduction in fungal growth incubated for 48 hrs by microplate reader analysis; assay type: functional
Mucor circinelloides [28] = test: Antifungal activity against Mucor circinelloides 235C7 assessed as reduction in fungal viability incubated for 48 hrs by microplate reader analysis; assay type: functional
Rhizopus arrhizus [29] = test: Antifungal activity against Rhizopus oryzae FGSC 9543 assessed as reduction in fungal viability incubated for 48 hrs by microplate reader analysis; assay type: functional
Aspergillus terreus [30] = test: Antifungal activity against Aspergillus terreus 191A6 assessed as reduction in fungal viability incubated for 48 hrs by microplate reader analysis; assay type: functional
Aspergillus niger [31] = test: Antifungal activity against Aspergillus niger FGSC A732 assessed as reduction in fungal viability incubated for 48 hrs by microplate reader analysis; assay type: functional
Curvularia lunata [32] = test: Antifungal activity against Curvularia lunata NRRL6409 assessed as reduction in fungal viability incubated for 48 hrs by microplate reader analysis; assay type: functional
Aspergillus flavus [33] = test: Antifungal activity against Aspergillus flavus NRRL485 assessed as reduction in fungal viability incubated for 48 hrs by microplate reader analysis; assay type: functional
Aspergillus fumigatus [34] = test: Antifungal activity against Aspergillus fumigatus NRRL5109 assessed as reduction in fungal viability incubated for 48 hrs by microplate reader analysis; assay type: functional
Hamigera insecticola [35] = test: Antifungal activity against Hamigera insecticola NRRL35442 assessed as reduction in fungal viability incubated for 48 hrs by microplate reader analysis; assay type: functional
Hamigera insecticola [36] = test: Antifungal activity against Hamigera insecticola NRRL35442 assessed as reduction in fungal growth incubated for 48 hrs by microplate reader analysis; assay type: functional

CC[C@@H](C)[C@@H]1NC(=O)[C@@H]2CCCN2C(=O)[C@H](Cc2ccccc2)N(C)C(=O)[C@H](Cc2ccccc2)NC(=O)[C@H](C(C)C)N(C)C(=O)[C@@H]([C@H](C)CC)OC(=O)[C@H](C(C)(C)O)N(C)C(=O)[C@H](CC(C)C)NC(=O)[C@H](C(C)C)N(C)C1=O [AUREOBASIDIN A] (cyclo(F[NMeF]P[aIle][NMeV]L[NMeVal(β-OH)][X1][NMeV]))
MFC (Mucor circinelloides [1]): > 10 µM
MIC80 (Mucor circinelloides [1]): > 10 µM
MFC (Rhizopus arrhizus [2]): > 10 µM
MIC80 (Rhizopus arrhizus [2]): > 10 µM
MFC<=99.9 (Aspergillus fumigatus [3]): >10 µM
MFC (Candida parapsilosis [4]): 2.5 µM (≈ 2.75 µg/mL)
MIC80 (Candida parapsilosis [4]): 1.3 µM (≈ 1.43 µg/mL)
MFC (Pichia kudriavzevii [5]): 2.5 µM (≈ 2.75 µg/mL)
MIC80 (Pichia kudriavzevii [5]): 1.3 µM (≈ 1.43 µg/mL)
MFC (Aspergillus fumigatus [6]): > 10 µM
MIC80 (Aspergillus fumigatus [6]): > 10 µM
MFC (Fusarium solani [7]): > 10 µM
MIC80 (Fusarium solani [7]): 5 µM (≈ 5.51 µg/mL)
MFC<=99.9 (Paecilomyces lilacinus [8]): >10 µM
MFC (Candida tropicalis [9]): 0.6 µM (≈ 0.661 µg/mL)
MIC80 (Candida tropicalis [9]): 0.6 µM (≈ 0.661 µg/mL)
MFC<=99.9 (Candida tropicalis [10]): 0.6 µM (≈ 0.661 µg/mL)
MFC (Aspergillus fumigatus [11]): > 10 µM
MIC80 (Aspergillus fumigatus [11]): > 10 µM
MFC<=99.9 (Candida albicans [12]): 2.5 µM (≈ 2.75 µg/mL)
MFC (Candida albicans [13]): 0.6 µM (≈ 0.661 µg/mL)
MIC80 (Candida albicans [13]): 0.3 µM (≈ 0.33 µg/mL)
MFC<=99.9 (Fusarium solani [14]): >10 µM
MFC<=99.9 (Candida parapsilosis [15]): 2.5 µM (≈ 2.75 µg/mL)
MFC<=99.9 (Candida albicans [16]): 0.6 µM (≈ 0.661 µg/mL)
MFC (Aspergillus fumigatus [17]): > 10 µM
MIC80 (Aspergillus fumigatus [17]): > 10 µM
MFC<=99.9 (Pichia kudriavzevii [18]): 2.5 µM (≈ 2.75 µg/mL)
MFC<=99.9 (Aspergillus fumigatus [19]): >10 µM
MFC (Aspergillus flavus [20]): > 10 µM
MIC80 (Aspergillus flavus [20]): > 10 µM
MFC (Paecilomyces lilacinus [21]): > 10 µM
MIC80 (Paecilomyces lilacinus [21]): 5 µM (≈ 5.51 µg/mL)
MFC (Aspergillus niger [22]): > 10 µM
MIC80 (Aspergillus niger [22]): 5 µM (≈ 5.51 µg/mL)
MFC (Cryptococcus neoformans [23]): 2.5 µM (≈ 2.75 µg/mL)
MIC80 (Cryptococcus neoformans [23]): 2.5 µM (≈ 2.75 µg/mL)
MFC (Curvularia lunata [24]): 1.3 µM (≈ 1.43 µg/mL)
MIC80 (Curvularia lunata [24]): 0.6 µM (≈ 0.661 µg/mL)
MFC<=99.9 (Cryptococcus neoformans [25]): 2.5 µM (≈ 2.75 µg/mL)
MFC (Aspergillus terreus [26]): > 10 µM
MIC80 (Aspergillus terreus [26]): 2.5 µM (≈ 2.75 µg/mL)
MFC (Candida albicans [27]): 2.5 µM (≈ 2.75 µg/mL)
MIC80 (Candida albicans [27]): 0.6 µM (≈ 0.661 µg/mL)
MFC<=99.9 (Mucor circinelloides [28]): >10 µM
MFC<=99.9 (Rhizopus arrhizus [29]): >10 µM
MFC<=99.9 (Aspergillus terreus [30]): >10 µM
MFC<=99.9 (Aspergillus niger [31]): >10 µM
MFC<=99.9 (Curvularia lunata [32]): 1.3 µM (≈ 1.43 µg/mL)
MFC<=99.9 (Aspergillus flavus [33]): >10 µM
MFC<=99.9 (Aspergillus fumigatus [34]): >10 µM
MFC<=99.9 (Hamigera insecticola [35]): >10 µM
MFC (Hamigera insecticola [36]): > 10 µM
MIC80 (Hamigera insecticola [36]): 0.6 µM (≈ 0.661 µg/mL)
